In PubChem BioAssay AID256 (DTP/NCI, 2004):
“And” between values parts separate entries of the source, which are not always exact repeats. Equal values may be shown once. Inconclusive results and toxic doses are left out. Rule for the calls: active = survival T/C of 150% or more; inactive = T/C below 125% in these data.

Tested on: CD2F1 mice, L1210 leukemia ip, survival T/C
Assay: NCI In Vivo Anticancer Drug Screen. Data for tumor model L1210 Leukemia (intraperitoneal) in CD2F1 (CDF1) mice
Details: endpoint: mean survival time, higher = longer survival
In short: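 Antitumor effect is scored in animals hosting a serially transplanted tumor. Values compare compound-dosed animals against vehicle-only controls as a simple quotient.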

[1] = dose: 100.0 mg/kg/injection, schedule: Q01DX009 (ip), vehicle: saline with Tween-80
[2] = dose: 200.0 mg/kg/injection, schedule: Q01DX009 (ip), vehicle: saline with Tween-80
[3] = dose: 400.0 mg/kg/injection, schedule: Q01DX009 (ip), vehicle: saline with Tween-80
[4] = dose: 100.0 mg/kg/injection, schedule: Q04DX003 (ip), vehicle: saline with Tween-80
[5] = dose: 200.0 mg/kg/injection, schedule: Q04DX003 (ip), vehicle: saline with Tween-80
[6] = dose: 50.0 mg/kg/injection, schedule: Q01DX009 (ip), vehicle: saline with Tween-80

Measured: T/C

Oc1c(Cl)cc(Cl)cc1/C=N/NC(=S)Nc1cc(C(F)(F)F)cc(C(F)(F)F)c1
inactive: dose: 6.25 mg/kg/injection, schedule: Q01DX009 (ip), vehicle: olive oil, sesame oil, peanut oil 102 % of control | dose: 12.5 mg/kg/injection, schedule: Q01DX009 (ip), vehicle: olive oil, sesame oil, peanut oil 100 % of control | dose: 25.0 mg/kg/injection, schedule: Q01DX009 (ip), vehicle: olive oil, sesame oil, peanut oil 100 % of control | dose: 50.0 mg/kg/injection, schedule: Q01DX009 (ip), vehicle: olive oil, sesame oil, peanut oil 102 % of control | dose: 100.0 mg/kg/injection, schedule: Q01DX009 (ip), vehicle: olive oil, sesame oil, peanut oil 102 % of control | dose: 200.0 mg/kg/injection, schedule: Q01DX009 (ip), vehicle: olive oil, sesame oil, peanut oil 94 % of control

CCC(=O)Nc1cc([N+](=O)[O-])cc([N+](=O)[O-])c1
inactive: dose: 100.0 mg/kg/injection, schedule: Q04DX002 (ip), vehicle: saline with Tween-80 105 % of control | dose: 200.0 mg/kg/injection, schedule: Q04DX002 (ip), vehicle: saline with Tween-80 100 % of control

Clc1ccc(C2(c3ccncc3)OCCO2)cc1
inactive: dose: 100.0 mg/kg/injection, schedule: Q04DX003 (ip), vehicle: saline 101 % of control | dose: 200.0 mg/kg/injection, schedule: Q04DX003 (ip), vehicle: saline 101 % of control

COC(=O)/C=C(\C)C(=O)OC
inactive: [1] 100 % of control | [2] 94 % of control | [3] 96 % of control

N#CCCN1C(=O)CCC1=O
inactive: [1] 97 % of control | [4] 95 % of control | [2] 95 % of control | [5] 97 % of control | [3] 92 % of control | dose: 400.0 mg/kg/injection, schedule: Q04DX003 (ip), vehicle: saline with Tween-80 95 % of control

Cc1ccccc1Nc1c2ccccc2nc2ccccc12
inactive: dose: 12.5 mg/kg/injection, schedule: Q04DX003 (ip), vehicle: saline with Tween-80 98 % of control | dose: 25.0 mg/kg/injection, schedule: Q04DX003 (ip), vehicle: saline with Tween-80 104 % of control | dose: 50.0 mg/kg/injection, schedule: Q04DX003 (ip), vehicle: saline with Tween-80 87 % of control

CC(=O)NC(Cc1ccc(F)cc1)C(=O)O (stereo unspecified)
inactive: dose: 25.0 mg/kg/injection, schedule: Q01DX009 (ip), vehicle: saline with Tween-80 95 % of control and 97 % of control | [6] 97 % of control and 98 % of control | [1] 95 % of control and 103 % of control | [2] 95 % of control and 101 % of control | [3] 98 % of control and 101 % of control | dose: 800.0 mg/kg/injection, schedule: Q01DX009 (ip), vehicle: saline with Tween-80 97 % of control and 105 % of control

CC(=O)Nc1ccc(S(=O)(=O)F)cc1
inactive: [6] 93 % of control | dose: 100.0 mg/kg/injection, schedule: Q01DX001 (ip), vehicle: saline with Tween-80 91 % of control | [1] 93 % of control | [4] 94 % of control | dose: 200.0 mg/kg/injection, schedule: Q01DX001 (ip), vehicle: saline with Tween-80 100 % of control | [5] 102 % of control

Cc1ccc(C#CP(C#Cc2ccc(C)cc2)C#Cc2ccc(C)cc2)cc1
inactive: dose: 1.56 mg/kg/injection, schedule: Q01DX009 (ip), vehicle: saline with Tween-80 92 % of control | dose: 3.12 mg/kg/injection, schedule: Q01DX009 (ip), vehicle: saline with Tween-80 96 % of control | dose: 6.25 mg/kg/injection, schedule: Q01DX009 (ip), vehicle: saline 96 % of control | dose: 25.0 mg/kg/injection, schedule: Q01DX009 (ip), vehicle: saline 96 % of control

CCOC(=O)/C=C(/Nc1ccc(S(=O)(=O)F)cc1)c1ccccc1
inactive: dose: 100.0 mg/kg/injection, schedule: Q01DX009 (ip), vehicle: Klucel (hydroxypropylcellulose) (HPC) 100 % of control | dose: 200.0 mg/kg/injection, schedule: Q01DX009 (ip), vehicle: Klucel (hydroxypropylcellulose) (HPC) 100 % of control | dose: 400.0 mg/kg/injection, schedule: Q01DX009 (ip), vehicle: Klucel (hydroxypropylcellulose) (HPC) 97 % of control
